Results reported in US20210205398A1, “COMPOSITIONS CONTAINING PHRAGMITIS RHIZOMA EXTRACT AS ACTIVE INGREDIENT FOR PREVENTION, AMELIORATION, OR TREATMENT OF A DISORDER CAUSED BY SIDE EFFECT OF ANTICANCER AGENT” (KOREA INSTITUTE OF ORIENTAL MEDICINE, priority 2016, published 2021).

Tests used:
[1] = test system: bone marrow cells from mouse femur; assay: Hematopoietic toxicity in mouse having intraperitoneal injection of anticancer agent (in vivo), bone marrow cell count; set-up: species or system C57BL/6 mouse; settings: docetaxel i.p. 50, 100, or 150 mg/kg; three days and seven days after injection; FIG. 2
Procedure: A C57BL/6 mouse was subjected to intraperitoneal injection of docetaxel at 50, 100, or 150 mg/kg. Three days and seven days after the injection, bone marrow cells were isolated from the mouse femur and counted, and the survival rate was measured.

[2] = test system: animal model having bone marrow suppression induced by docetaxel; assay: Alleviation of bone marrow suppression in animal model having bone marrow suppression induced by docetaxel; format: in vivo, C57BL/6 mice
Procedure: After that, a change brought by the Phragmitis Rhizoma extract was determined.
Specifically, C57BL/6 mice were categorized into 4 groups. Group 1 is a control, i.e., a group treated with saline containing 5% ethanol and 2% polysorbate 80. Group 2 is a docetaxel treatment group, i.e., a group with intraperitoneal injection (3 times) of 30 mg/kg docetaxel. Group 3 is a docetaxel and 125 mg/kg Phragmitis Rhizoma extract administration group, i.e., a group to which compulsory administration of 125 mg/kg Phragmitis Rhizoma extract was carried out, once a day starting from 2 days before the administration of docetaxel, and the compulsory administration of 125 mg/kg Phragmitis Rhizoma extract (once a day) was continued even for the 3 days of administering docetaxel. Lastly, Group 4 is a docetaxel and 250 mg/kg Phragmitis Rhizoma extract administration group, i.e., a group to which administration of 250 mg/kg Phragmitis Rhizoma extract was carried out, in the same manner as above Group 3, once a day starting from 2 days before the administration of docetaxel, and the compulsory administration of 250 mg/kg Phragmitis Rhizoma extract (once a day) was continued even for the 3 days of administering docetaxel.
After that, a change in body weight of the mouse belonging to each of the control group, docetaxel administration group, combined administration group with docetaxel and 125 mg/kg Phragmitis Rhizoma extract, and combined administration group with docetaxel and 250 mg/kg Phragmitis Rhizoma extract was measured every day. On Day 6, the mouse was sacrificed and the weight of the spleen and thymus, which play an important role in determining cell number change in bone marrow and hematopoiesis, was measured.
Organ index (mg/g)=Weight of organ (mg)/Weight of animal (g)

[3] = test system: animal model having docetaxel-induced bone marrow suppression; assay: Blood cell numbers in animal model having docetaxel-induced bone marrow suppression; format: in vivo, C57BL/6 mice
Procedure: In order to determine the influence of Phragmitis Rhizoma extract on blood parameters of an animal model having bone marrow suppression, bone marrow suppression was induced by intraperitoneal injection of docetaxel to a mouse. After that, a change brought by the Phragmitis Rhizoma extract was determined.
Specifically, C57BL/6 mice were categorized into 5 groups. Group 1 is a control, i.e., a group treated with saline containing 5% ethanol and 2% polysorbate 80. Group 2 is a docetaxel treatment group, i.e., a group with intraperitoneal injection (3 times) of 30 mg/kg docetaxel. Group 3 is a docetaxel and 30 mg/kg Phragmitis Rhizoma extract administration group, i.e., a group to which compulsory administration of 30 mg/kg Phragmitis Rhizoma extract was carried out, once a day starting from 2 days before the administration of docetaxel, and the compulsory administration of 30 mg/kg Phragmitis Rhizoma extract (once a day) was continued even for the 3 days of administering docetaxel. Group 4 is a docetaxel and 100 mg/kg Phragmitis Rhizoma extract administration group, i.e., a group to which administration was carried out in the same manner as above Group 3. Lastly, Group 5 is a docetaxel and 300 mg/kg Phragmitis Rhizoma extract administration group, i.e., a group to which administration was carried out in the same manner as Group 3.
Blood was taken from the animal and a change in the number of blood cells was determined.

[4] = docetaxel 30 mg/kg i.p. 3 times, alone, Day 6
[5] = docetaxel 30 mg/kg i.p. 3 times, alone, mean ± SEM, ten mice

number of bone marrow cells (bone marrow mononuclear cells) ([2]; docetaxel 30 mg/kg i.p. 3 times, alone, vs control, FIG. 5): decreased significantly
Spleen index [2, 4]: 2.366 ± 0.22 mg/g
Thymus index [2, 4]: 0.911 ± 0.22 mg/g
organ index of spleen and thymus (in words) ([2]; docetaxel alone): a decrease in organ index
expression of IL-3 (mRNA, spleen tissue) ([2]; docetaxel alone, FIG. 8): largely decreased
Lymphocytes [3, 5]: 1.56 ± 0.22
Neutrophils [3, 5]: 0.30 ± 0.01
RBCs [3, 5]: 7.72 ± 0.15
WBCs [3, 5]: 2.09 ± 0.19
Compound: CC(=O)O[C@@]12CO[C@@H]1C[C@H](O)[C@@]1(C)C(=O)[C@H](O)C3=C(C)[C@@H](OC(=O)[C@H](O)[C@@H](NC(=O)OC(C)(C)C)c4ccccc4)C[C@@](O)([C@@H](OC(=O)c4ccccc4)[C@H]21)C3(C)C [docetaxel]
number of isolated bone marrow cells [1]: a decrease in the number of the isolated bone marrow cells was observed in significant sense
body weight ([2]; docetaxel 30 mg/kg i.p. 3 times, alone, FIG. 4): a significant decrease in body weight was induced
histopathological analysis of thymus ([2]; docetaxel administration, FIG. 7): organ shrinkage and loss of functional lymphoid organ
histological analysis of femur (H&E) ([2]; docetaxel only, FIG. 6): a hypocellularity and an abnormality in cellular structure in bone marrow
number of blood cells (in words) ([3]; docetaxel administration group): a decrease in the number of the white blood cells, neutrophils, lymphocytes, and red blood cells
